Reference: US11717480B2, “Extracellular vesicles and methods and uses thereof” (The Regents of the University of California, priority 2016, dated 2023)

Legend:
[1] = system: EL4 cells; assay: In vitro MTT viability assay of EL4 cells; format: cell-based, mouse; conditions: highest concentrations tested, n=3, one-way ANOVA and Tukey HSD
Procedure: Turning now to FIG. 20. FIG. 20 describes the effect of therapeutic agents delivered by EVs of various embodiments as compared to other forms of drug delivery. […] (See, Immordino, et al., Int. J. Nanomedicine 1, 297-315 (2016), the disclosures being incorporated herein by reference.)
EL4 cells were treated over 24 or 48 hours with DOX, DOXIL, DOX-EVs, or unloaded EVs. […] It is important to note that DOX-loaded EVs would not be expected to outperform free DOX in vitro study since their primary benefits (improved biocompatibility and extended release) are critical factors in an in vivo delivery setting.
In vitro viability studies. EL4 cells were plated at 20,000 cells/well in 100 μL of DMEM with 10% FBS. Cells were incubated for 24 hours or 48 hours with the concentrations of DOX, DOXIL or DOX-EVs described in FIG. 20. An MTT assay was performed and cells were incubated with 1 mg/mL of MTT for 1 hour. The crystals were dissolved in 100 μL of DMSO and the absorbance of each well was characterized at 560 nm.
Turning now to FIG. 20. FIG. 20 describes the effect of therapeutic agents delivered by EVs of as compared to other forms of drug delivery. […] (See, Immordino, et al., Int. J. Nanomedicine 1, 297-315 (2016), the disclosures being incorporated herein by reference.)
EL4 cells were treated over 24 or 48 hours with DOX, DOXIL, DOX-EVs, or unloaded EVs. […]

[2] = Biodistribution: drug content of organs 24 hours after treatment; format: in vivo, C57BL/6 mice; conditions: lung, liver, heart, spleen, tumor
Procedure: Turning to FIG. 21C, serum was collected from C57BL/6 mice treated with DOX, DOXIL or DOX-EVs and analyzed for drug content. Concentration of DOX in the serum (n=3) was measured over 12 hours by a series of blood collections and fluorescence quantifications. […] Twenty-four hours after treatment, the mice were sacrificed and their organs were assessed for drug content.
For pharmacokinetics and biodistribution experiments, tumors were established and mice were treated as described above. Tail vein blood collection was completed at the time points indicated and suspended in acidified alcohol. The blood was analyzed for DOX concentration by fluorescence spectroscopy (ex. 485 nm, em. 595 nm). 24 hours post treatment, the mice were sacrificed and the organs were extracted. The organs were cryopulverized and resuspended in acidified alcohol for fluorescence spectroscopy (ex. 485 nm, em. 595 nm) analysis.

Accumulation of drug in organs [2]: tends to accumulate in the lung
SMILES: COc1cccc2c1C(=O)c1c(O)c3c(c(O)c1C2=O)C[C@@](O)(C(=O)CO)C[C@@H]3O[C@H]1C[C@H](N)[C@H](O)[C@H](C)O1 [DOX, doxorubicin]
Viability of EL4 cells versus controls [1]: statistically significant (p<0.01) from the controls
